{"source": "PubChem BioAssay AID1259409", "about": "(Chemical Carcinogenesis Research Information System (CCRIS), 2018)", "origin": "cited, not measured here", "tested_on": "rodent chemically induced tumor inhibition, incidence and multiplicity", "assay": "CCRIS tumor inhibitor studies"}
{"molecule": "O=C1O[C@H]([C@@H](O)CO)C(O)=C1O", "values": [{"measurement": "tumour outcome (control, treated, inhibition, significance)", "setting": "Carcinogen: 7,12-DIMETHYLBENZ[A]ANTHRACENE, 57-97-6, Dose [Inhibitor]: 0, 5000 PPM IN DRINKING WATER FOR 5 MO (STUDY DURATION: 5 MO), Route [Inhibitor]: ORAL, Species: RAT, Strain/Sex: SWISS/FEMALE, Target Tissue: Type of Lesion: MAMMARY GLAND: CRIBRIFORM CARCINOMA, Dose [Carcinogen]: 10 MG ONCE, Promoter: NONE USED", "result": "85%, 50%, 41%, not calculated"}, {"measurement": "tumour outcome (control, treated, inhibition, significance)", "setting": "Carcinogen: 7,12-DIMETHYLBENZ[A]ANTHRACENE, 57-97-6, Dose [Inhibitor]: 0.2% IN 0.25 ML OF 20:80 WATER-ACETONE DAILY FOR 20 D BEGINNING 1 D POST CARCINOGEN TREATMENT (STUDY DURATION: 19 WK), Route [Inhibitor]: DERMAL, Species: MOUSE, Strain/Sex: ICR/FEMALE, Target Tissue: Type of Lesion: SKIN: PAPILLOMA, Dose [Carcinogen]: 0.125 MG IN 0.25 ML ACETONE ONCE, Promoter: CROTON OIL, 8001-28-3", "result": "43%, 48%, -12%, not significant"}, {"measurement": "tumour outcome (control, treated, inhibition, significance)", "setting": "Carcinogen: 7,12-DIMETHYLBENZ[A]ANTHRACENE, 57-97-6, Dose [Inhibitor]: 1000 UG APPLIED ONCE 5 MIN PRIOR TO CARCINOGEN DOSE (STUDY DURATION: 28 WK), Route [Inhibitor]: DERMAL, Species: MOUSE, Strain/Sex: CD-1/FEMALE, Target Tissue: Type of Lesion: SKIN: PAPILLOMA, Dose [Carcinogen]: 2.56 UG ONCE, Promoter: 12-O-TETRADECANOYLPHORBOL-13-ACETATE, 16561-29-8", "result": "82%, 56%, 32%, not calculated"}, {"measurement": "tumour outcome (control, treated, inhibition, significance)", "setting": "Carcinogen: 17BETA-ESTRADIOL, 50-28-2, Dose [Inhibitor]: 1% (W/V) IN REVERSED OSMOSIS DEIONIZED DRINKING WATER FOR 103 D STARTING 93 D AFTER START OF STUDY (STUDY DURATION: 196, Route [Inhibitor]: ORAL, Species: HAMSTER, Strain/Sex: SYRIAN/MALE, Target Tissue: Type of Lesion: KIDNEY: CARCINOMA, Dose [Carcinogen]: 90% OF 31 MG PELLET AT START OF STUDY AND 90% OF 45 MG PELLET 3 MO LATER, Promoter: NONE USED", "result": "16/23 (70%), 9/19 (47%), 33%, not significant"}, {"measurement": "tumour outcome (control, treated, inhibition, significance)", "setting": "Carcinogen: 17BETA-ESTRADIOL, 50-28-2, Dose [Inhibitor]: 1% (W/V) IN REVERSED OSMOSIS DEIONIZED DRINKING WATER FOR FIRST 92 D OF STUDY (STUDY DURATION: 196 D), Route [Inhibitor]: ORAL, Species: HAMSTER, Strain/Sex: SYRIAN/MALE, Target Tissue: Type of Lesion: KIDNEY: CARCINOMA, Dose [Carcinogen]: 90% OF 31 MG PELLET AT START OF STUDY AND 90% OF 45 MG PELLET 3 MO LATER, Promoter: NONE USED", "result": "16/23 (70%), 15/17 (88%), -26%, not significant"}, {"measurement": "tumour outcome (control, treated, inhibition, significance)", "setting": "Carcinogen: 17BETA-ESTRADIOL, 50-28-2, Dose [Inhibitor]: 1% IN REVERSED OSMOSIS DEIONIZED DRINKING WATER FOR DURATION OF STUDY (STUDY DURATION: 196 D), Route [Inhibitor]: ORAL, Species: HAMSTER, Strain/Sex: SYRIAN/MALE, Target Tissue: Type of Lesion: KIDNEY: CARCINOMA, Dose [Carcinogen]: 90% OF 31 MG PELLET AT START OF STUDY AND 90% OF 45 MG PELLET 3 MO LATER, Promoter: NONE USED", "result": "16/23 (70%), 10/33 (30%), 57%, p<0.005"}, {"measurement": "tumour outcome (control, treated, inhibition, significance)", "setting": "Carcinogen: AMINOPYRENE, 1606-67-3, SODIUM NITRITE, 7632-00-0, Carcinogen: AMINOPYRENE, 1606-67-3, SODIUM NITRITE, 7632-00-0, Dose [Inhibitor]: 7 G/KG OF DIET FOR DURATION OF STUDY (STUDY DURATION: 40 WK), Route [Inhibitor]: ORAL, Species: RAT, Strain/Sex: SPRAGUE-DAWLEY/MALE, Target Tissue: Type of Lesion: LIVER: TUMORS, Dose [Carcinogen]: AMINOPYRENE 1 G/L AND SODIUM NITRITE 1 G/L IN DRINKING WATER 5 D/WK FOR 40 WK, Promoter: NONE USED", "result": "12/37 (32%), 0/39 (0%), 100%, not calculated"}, {"measurement": "tumour outcome (control, treated, inhibition, significance)", "setting": "Carcinogen: AMINOPYRENE, 1606-67-3, SODIUM NITRITE, 7632-00-0, Carcinogen: AMINOPYRENE, 1606-67-3, SODIUM NITRITE, 7632-00-0, Dose [Inhibitor]: 7 G/KG OF DIET FOR DURATION OF STUDY (STUDY DURATION: 40 WK), Route [Inhibitor]: ORAL, Species: RAT, Strain/Sex: SPRAGUE-DAWLEY/MALE, Target Tissue: Type of Lesion: LUNG: TUMORS, Dose [Carcinogen]: AMINOPYRENE 1 G/L AND SODIUM NITRITE 1 G/L IN DRINKING WATER 5 D/WK FOR 40 WK, Promoter: NONE USED", "result": "25/37 (68%), 13/39 (33%), 51%, not calculated"}, {"measurement": "tumour outcome (control, treated, inhibition, significance)", "setting": "Carcinogen: AMINOPYRENE, 1606-67-3, SODIUM NITRITE, 7632-00-0, Carcinogen: AMINOPYRENE, 1606-67-3, SODIUM NITRITE, 7632-00-0, Dose [Inhibitor]: 7 G/KG OF DIET FOR THE DURATION OF STUDY (STUDY DURATION: 40 WK), Route [Inhibitor]: ORAL, Species: RAT, Strain/Sex: SPRAGUE-DAWLEY/MALE, Target Tissue: Type of Lesion: KIDNEY: TUMORS, Dose [Carcinogen]: AMINOPYRINE 1 G/L AND SODIUM NITRITE 1 G/L IN DRINKING WATER 5 D/WK FOR 40 WK, Promoter: NONE USED", "result": "10/37 (27%), 7/39 (18%), 33%, not calculated"}, {"measurement": "tumour outcome (control, treated, inhibition, significance)", "setting": "Carcinogen: BENZO[A]PYRENE, 50-32-8, Dose [Inhibitor]: 0, 10 MG/ML IN DRINKING WATER FOR 6 WK (STUDY DURATION: 9 WK), Route [Inhibitor]: ORAL, Species: MOUSE, Strain/Sex: NIGP(S)/FEMALE, Target Tissue: Type of Lesion: LUNG: ADENOMA, Dose [Carcinogen]: 0.5 MG INJECTED IN THE SCAPULAR REGION OF NEWBORN MICE ONCE, Promoter: NONE USED", "result": "56%, 35%, 38%, not calculated"}, {"measurement": "tumour outcome (control, treated, inhibition, significance)", "setting": "Carcinogen: BENZO[A]PYRENE, 50-32-8, Dose [Inhibitor]: 0, 10 MG/ML IN DRINKING WATER FOR 6 WK (STUDY DURATION: 9 WK), Route [Inhibitor]: ORAL, Species: MOUSE, Strain/Sex: NIGP(S)/MALE, Target Tissue: Type of Lesion: LUNG: ADENOMA, Dose [Carcinogen]: 0.5 MG INJECTED IN THE SCAPULAR REGION OF NEWBORN MICE ONCE, Promoter: NONE USED", "result": "38%, 24%, 37%, not calculated"}, {"measurement": "tumour outcome (control, treated, inhibition, significance)", "setting": "Carcinogen: BENZO[A]PYRENE, 50-32-8, Dose [Inhibitor]: 0.068 MMOL/G IN DIET FOR 5 WK BEGINNING 1 WK PRIOR TO CARCINOGEN DOSE (STUDY DURATION: 21 WK), Route [Inhibitor]: ORAL, Species: MOUSE, Strain/Sex: ICR/HA/FEMALE, Target Tissue: Type of Lesion: FORESTOMACH: TUMOR, Dose [Carcinogen]: 1 MG IN 0.2 ML CORN OIL 2/WK FOR 4 WK, Promoter: NONE USED", "result": "100%, 95%, 5%, not significant"}, {"measurement": "tumour outcome (control, treated, inhibition, significance)", "setting": "Carcinogen: DIETHYLNITROSAMINE, 55-18-5, Dose [Inhibitor]: 0, 3 G/L IN DRINKING WATER BEGINNING 1 D PRIOR TO FIRST CARCINOGEN DOSE AND CONTINUING TO 2 D POST LAST CARCINOGEN DOSE, Route [Inhibitor]: ORAL, Species: RAT, Strain/Sex: BD6/FEMALE, Target Tissue: Type of Lesion: ESOPHAGUS: TUMOR, Dose [Carcinogen]: 80 MG/KG BW 1/WK FOR 8 WK, Promoter: NONE USED", "result": "31%, 28%, 10%, not significant"}]}
